According to ChEMBL document CHEMBL5528082 (J Med Chem, 2024):
≈ marks a conversion by molar mass, not a printed value.

Legend:
Staphylococcus aureus [1] = assay: Antibacterial activity against TMP-resistant Staphylococcus aureus BHKS 227 incubated for 24 hrs by CLSI based broth microdilution assay; type: functional
Dihydrofolate reductase [2] = biological target: Dihydrofolate reductase (Staphylococcus aureus, UniProt P0A017); assay: Inhibition of Staphylococcus aureus DHFR expressed in Escherichia coli BL21 (DE3) using DHF as substrate preincubated for 10 mins followed by substrate addition measured for 10 mins in presence of NADPH by spectrophotometry
Sequence of Dihydrofolate reductase (Staphylococcus aureus, UniProt P0A017) (P0A017 whole entry): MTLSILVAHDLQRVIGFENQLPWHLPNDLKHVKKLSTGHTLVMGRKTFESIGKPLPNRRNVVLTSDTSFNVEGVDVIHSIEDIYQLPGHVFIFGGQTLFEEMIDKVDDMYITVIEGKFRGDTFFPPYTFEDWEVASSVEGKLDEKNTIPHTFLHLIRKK

[3] = Cytotoxicity against HEK293 cells assessed as inhibition rate of cell growth at 100 uM incubated for 24 hrs by CCK8 assay relative to control; type: toxicity, cell-based; details: human
Staphylococcus aureus [4] = assay: Antibacterial activity against Staphylococcus aureus USA 300 incubated for 24 hrs by CLSI based broth microdilution assay; type: functional
Staphylococcus aureus [5] = assay: Antibacterial activity against TMP-resistant Staphylococcus aureus BHKS 723 incubated for 24 hrs by CLSI based broth microdilution assay; type: functional
Staphylococcus aureus [6] = assay: Antibacterial activity against TMP-resistant Staphylococcus aureus BHKS 721 incubated for 24 hrs by CLSI based broth microdilution assay; type: functional
Staphylococcus aureus [7] = assay: Antibacterial activity against Staphylococcus aureus ATCC 25923 incubated for 24 hrs by CLSI based broth microdilution assay; type: functional
[8] = Cytotoxicity against human NCM460 cells assessed as inhibition rate of cell growth at 100 uM incubated for 24 hrs by CCK8 assay relative to control; type: toxicity, cell-based
[9] = system: Dihydrofolate reductase (Staphylococcus aureus); details: dose 100.0 nM
Dihydrofolate reductase [10] = biological target: T1, Dihydrofolate reductase (Homo sapiens, UniProt P00374); assay: Inhibition of human DHFR
T1 sequence (P00374 whole entry): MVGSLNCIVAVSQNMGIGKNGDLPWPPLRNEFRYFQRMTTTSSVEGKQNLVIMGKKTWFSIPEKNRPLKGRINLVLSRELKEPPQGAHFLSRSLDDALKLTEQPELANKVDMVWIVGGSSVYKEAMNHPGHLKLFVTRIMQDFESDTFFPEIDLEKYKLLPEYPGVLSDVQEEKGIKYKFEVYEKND

Dihydrofolate reductase [11] = biological target: T2, Dihydrofolate reductase (Mycobacterium tuberculosis, UniProt P9WNX1); assay: Inhibition of Mycobacterium tuberculosis DHFR
T2 sequence (P9WNX1 whole entry): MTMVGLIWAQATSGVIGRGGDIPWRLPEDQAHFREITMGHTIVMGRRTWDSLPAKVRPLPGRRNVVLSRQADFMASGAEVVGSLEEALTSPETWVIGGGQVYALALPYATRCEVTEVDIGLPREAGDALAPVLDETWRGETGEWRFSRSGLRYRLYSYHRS

[12] = system: Mycobacterium tuberculosis; assay: Antibacterial activity against Mycobacterium tuberculosis H37Ra; type: functional

| SMILES | MIC (Staphylococcus aureus [1]) [mg/L] | IC50 (Dihydrofolate reductase [2]) [µM] | inhibition at 24 h, 100 µM [3] [%] | MIC (Staphylococcus aureus [4]) [mg/L] | MIC (Staphylococcus aureus [5]) [mg/L] | MIC (Staphylococcus aureus [6]) [mg/L] | MIC (Staphylococcus aureus [7]) [mg/L] | inhibition at 24 h, 100 µM [8] [%] | inhibition [9] [%] | IC50 (Dihydrofolate reductase [10]) [µM] | IC50 (Dihydrofolate reductase [11]) [µM] | MIC [12] [mg/L] |
| --- | --- | --- | --- | --- | --- | --- | --- | --- | --- | --- | --- | --- |
| COc1cc(C(C)C)c(Oc2cnc(N)nc2N)cc1-c1ccc2c(c1)OCO2 | 2 (≈ 5.07 µM) | 0.0348 | 26.8 | 0.25 (≈ 0.634 µM) | 16 (≈ 40.6 µM) | 32 (≈ 81.1 µM) | 0.5 (≈ 1.27 µM) | 62.3 | > 100 |  |  |  |
| COc1cc(C(C)C)c(Oc2cnc(N)nc2N)cc1-c1cc(F)cc(F)c1 | 4 (≈ 10.4 µM) | 0.0418 | 45.2 | 0.5 (≈ 1.29 µM) | 32 (≈ 82.8 µM) | 32 (≈ 82.8 µM) | 1 (≈ 2.59 µM) | 52.1 | > 100 |  |  |  |
| COc1cc(C(C)C)c(Oc2cnc(N)nc2N)cc1-c1ccc(OC(F)(F)F)cc1 | 1 (≈ 2.3 µM) | 0.0191 | 43.5 | 0.25 (≈ 0.575 µM) | 8 (≈ 18.4 µM) | 8 (≈ 18.4 µM) | 0.25 (≈ 0.575 µM) | 63.6 | > 100 |  |  |  |
| COc1cc(C(C)C)c(Oc2cnc(N)nc2N)cc1-c1ccc(C(C)C)cc1 | 1 (≈ 2.55 µM) | 0.00181 | 46.9 | 0.25 (≈ 0.637 µM) | 4 (≈ 10.2 µM) | 4 (≈ 10.2 µM) | 0.25 (≈ 0.637 µM) | 44 | 55.7 | 2.91 |  |  |
| COc1cc(C(C)C)c(Oc2cnc(N)nc2N)cc1-c1ccc(F)cc1 | 1 (≈ 2.71 µM) | 0.0695 | 46.9 | 0.25 (≈ 0.679 µM) | 16 (≈ 43.4 µM) | 16 (≈ 43.4 µM) | 0.25 (≈ 0.679 µM) | 60.3 | 27.2 |  |  |  |
| COc1cc(C(C)C)c(Oc2cnc(N)nc2N)cc1I | 0.5 (≈ 1.25 µM) | 0.0329 | 26.1 | 0.063 (≈ 0.157 µM) | 8 (≈ 20 µM) | 8 (≈ 20 µM) | 0.125 (≈ 0.312 µM) | 32.1 |  | 176 | 3.5 | 50 (≈ 125 µM) |
| COc1cc(C(C)C)c(Oc2cnc(N)nc2N)cc1C1CC1 | 4 (≈ 12.7 µM) | 0.0278 | 0.06 | 0.5 (≈ 1.59 µM) | 32 (≈ 102 µM) | 16 (≈ 50.9 µM) | 1 (≈ 3.18 µM) | 4.06 | 35.3 |  |  |  |
| COc1cc(C(C)C)c(Oc2cnc(N)nc2N)cc1CC(C)C | 4 (≈ 12.1 µM) | 0.0242 | 57.8 | 0.5 (≈ 1.51 µM) | 16 (≈ 48.4 µM) | 16 (≈ 48.4 µM) | 0.5 (≈ 1.51 µM) | 67.4 | > 100 |  |  |  |
| COc1ccc(Oc2cnc(N)nc2N)cc1-c1ccc(OC(F)(F)F)cc1 | 2 (≈ 5.1 µM) | 0.0159 | 39.4 | 0.002 (≈ 0.0051 µM) | 4 (≈ 10.2 µM) | 4 (≈ 10.2 µM) | 0.002 (≈ 0.0051 µM) | 69.9 | 51.1 |  |  |  |
| COc1cc(C(C)C)c(Oc2cnc(N)nc2N)cc1-c1ccc(C(=O)O)cc1 | < 0.25 | 0.00444 | 29.9 | 0.063 (≈ 0.16 µM) | 2 (≈ 5.07 µM) | 2 (≈ 5.07 µM) | 0.063 (≈ 0.16 µM) | 6.53 | 45.1 |  |  |  |
| COc1cc(C(C)C)c(Oc2cnc(N)nc2N)cc1-c1ccc2ccccc2c1 | 1 (≈ 2.5 µM) | 0.148 | 13.5 | 0.25 (≈ 0.624 µM) | > 32 | > 32 | 0.5 (≈ 1.25 µM) | 67.6 | 80.8 |  |  |  |
| CC(C)c1cc(OCC2CCCC2)c(I)cc1Oc1cnc(N)nc1N | 2 (≈ 4.27 µM) | 0.0102 | 64 | 0.125 (≈ 0.267 µM) | 4 (≈ 8.54 µM) | 8 (≈ 17.1 µM) | 0.125 (≈ 0.267 µM) | 35.2 | 76.4 |  |  |  |
